# Measurements reported in patent publication US9594084B2, “Phosphorylation of histones and uses thereof” (H. LEE MOFFITT CANCER CENTER AND RESEARCH INSTITUTE, priority 2012, dated 2017).
# Tests used:
# [1] = tested on: pY37-H2B epigenetic marks within IDH2; assay: Directed ChIP-PCR of pY37-H2B marks in IDH2 coding region, synchronized MEFs; assay type: cell-based, mouse
# [2] = tested on: WEE1 expressing cancer cell lines; conditions: cited from earlier work
# [3] = tested on: cancers and cancer cell lines; conditions: cited from earlier work
# [4] = molecular target: T1, WEE1 (Homo sapiens, UniProt P30291); assay: Peptide Immunosandwich Assay (PIA) with purified WEE1; assay type: biochemical; set-up: GST; purchased Invitrogen; conditions: purified WEE1 protein (100 ng), 5 uM
# Procedure: H2B Tyr37-phosphorylation was determined as described in the text.
# In brief, Streptavidin coated 96-well plates (R&D systems) were incubated with biotinylated human histone H2B derived peptides […] (SEQ ID NO: 62, Y37 site is underlined). H2B derived phospho-peptide KRSRKESp[…] (SEQ ID NO: 63) was used as positive control. Any unbound areas on the plate were blocked with 3% BSA. Next, purified WEE1 protein (100 ng) prepared in kinase buffer (20 mM HEPES, 225 mM NaCl, 1% Triton X-100, 10% glycerol, phosphatase and protease inhibitors) supplemented with 1 uM ATP and 1 uM MgCl2. After 2 hours of incubation, plates were washed with phosphate buffered saline containing 0.1% Tween 20 (PBST) and reblocked in 3% BSA. The pY37-H2B or pTyr antibodies (at 1:1000 dilution) were added and incubated for 1 hour. Unbound antibodies were washed and HRP-conjugated anti-mouse secondary antibodies (1:5000) were added. The magnitude of phosphorylation was detected using developer solution (OPD tablets, Sigma) and after 20 minutes of incubation, the plates were read at 450 nm.
# The Peptide Immunosandwich Assay was first validated using purified WEE1 protein (100 ng) and cancer derived cell lines (50 ug). […] PIA was also validated using cancer derived cells lines MDA-MB231 (low WEE1 activity) and LAPC4 cells (high WEE1 activity). […] As negative controls, H2B peptide alone or WEE1 enzyme alone were used. […]
# [5] = molecular target: T1, WEE1; assay: pTyr37-H2B immunoprecipitation/immunoblot in synchronized H1975 cells; assay type: cell-based; set-up: endogenous in cells; host or cells: H1975; conditions: 6.30 hours post-release, 0.3 μM
# Procedure: FIG. 13A is an immunoblot showing lysates from synchronized MEFs immunoprecipitated with pTyr37-H2B antibodies followed by immunoblotting with pTyr37-H2B antibody (top panel) or H2B antibody (bottom panel). FIG. 13B is an immunoblot showing cell lysates 6.30 hours post-release from H1975 cells synchronized by double thymidine alone (first column) or with 0.31 μM (second column), 0.62 μM (third column) and 1.25 μM (fourth column) MK1775 WEE1 inhibitor that were immunoprecipitated with pTyr37-H2B antibodies followed by immunoblotting with pTyr37-H2B, H2B, pTyr15-Cdc2, or Cdc2 antibodies. FIG. 13C is an immunoblot showing lysates collected at 0 and 6.30 hours post-release from synchronized MEFs transfected with control (first two columns) or WEE1 (last two columns) siRNAs that were immunoprecipitated with pTyr37-H2B antibodies followed by immunoblotting with pTyr37-H2B (top panel), H2B (second panel), WEE1 (third panel), or PTyr15-Cdc2 (bottom panel) antibodies. FIG. 13D is an immunoblot showing equimolar amounts of purified WEE1 (last three columns) and H2B (first three columns) proteins incubated in the presence (third column) or absence of WEE1 inhibitor (MK1775, 0.625 μM) for 1 hour at 30° C. and immunoblotted with pTyr37-H2B (top panel), H2B (middle panel), and WEE1 (bottom panel) antibodies. […]
# T1 sequence (P30291 whole entry): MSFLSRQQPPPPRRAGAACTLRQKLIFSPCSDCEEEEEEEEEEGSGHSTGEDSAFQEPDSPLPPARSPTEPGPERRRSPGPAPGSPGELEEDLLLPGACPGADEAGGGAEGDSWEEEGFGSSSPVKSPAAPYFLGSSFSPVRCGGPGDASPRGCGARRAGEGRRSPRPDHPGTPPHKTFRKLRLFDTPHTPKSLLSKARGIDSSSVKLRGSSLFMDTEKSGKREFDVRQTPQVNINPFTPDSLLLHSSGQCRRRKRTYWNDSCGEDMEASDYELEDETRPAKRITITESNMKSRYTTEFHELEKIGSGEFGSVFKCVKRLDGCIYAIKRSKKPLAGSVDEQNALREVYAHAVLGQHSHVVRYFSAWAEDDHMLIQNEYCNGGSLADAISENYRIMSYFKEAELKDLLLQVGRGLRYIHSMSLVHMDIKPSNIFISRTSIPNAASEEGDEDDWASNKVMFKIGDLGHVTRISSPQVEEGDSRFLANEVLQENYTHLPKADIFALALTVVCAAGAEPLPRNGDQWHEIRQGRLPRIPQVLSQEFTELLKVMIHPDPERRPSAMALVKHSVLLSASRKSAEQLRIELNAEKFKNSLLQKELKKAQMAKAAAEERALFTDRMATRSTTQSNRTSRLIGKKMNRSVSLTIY
smiles,measurement,setting,value
C=CCn1c(=O)c2cnc(Nc3ccc(N4CCN(C)CC4)cc3)nc2n1-c1cccc(C(C)(C)O)n1 [MK-1775],deposition of pY37-H2B epigenetic marks in the IDH2 coding region,[1],abolished
same,apoptosis,[2],selectively induces apoptosis
same,"sensitization to DNA damaging agents such as gemcitabine, 5-fluorouracil",[3],able to sensitize
same,pY37-H2B levels,[4],significant decrease
same,pTyr37-phosphorylation of H2B,[5],complete loss
